In ChEMBL document CHEMBL6092138, “Discovery of the potent covalent inhibitor with an acrylate warhead for SARS-CoV-2 3CL protease” (Bioorg Med Chem Lett, 2024) one finds EC50 data, which are given here for 3 compounds.

Each structure is given as a SMILES string.

The test system of this assay is SARS-CoV-2. Put plainly: Antiviral activity against replicon RNA harboring SARS-CoV-2 infected in human Huh-7 cells assessed as inhibition of viral replication. The settings on record: Severe acute respiratory syndrome coronavirus 2, Huh-7. The format is functional, organism-based.
A word on the EC50: it is the midpoint of the concentration-response curve. In the case of `CC(C)(C)[C@H](NC(=O)C(F)(F)F)C(=O)N1C[C@H]2[C@@H]([C@H]1C(=O)N[C@H](/C=C/C(N)=O)C[C@@H]1CCNC1=O)C2(C)C`, the EC50 was greater than 5000 nM.

With `COC(=O)/C=C/[C@H](C[C@@H]1CCNC1=O)NC(=O)[C@@H]1[C@@H]2[C@H](CN1C(=O)[C@@H](NC(=O)C(F)(F)F)C(C)(C)C)C2(C)C`, the EC50 is 45 nM.

On to `CC(C)(C)[C@H](NC(=O)C(F)(F)F)C(=O)N1C[C@H]2[C@@H]([C@H]1C(=O)N[C@H](C#N)C[C@@H]1CCNC1=O)C2(C)C` [NIRMATRELVIR], for which the EC50 amounted to 23 nM.
